Measurements reported in patent US10125118B2, “Heteroaryl compounds and their use as therapeutic drugs” (Dong-A Socio Holdings Co., Ltd., priority 2015, dated 2018).

Experiments:
[1] = molecular target: human c-MER catalytic domain (Homo sapiens (Human), UniProt Q12866); experiment: LanthaScreen TR-FRET kinase assay, c-MER; details: read-out: Mer TK inhibition (IC50); Biochemical IC50, TR-FRET, 10 uM ATP
[2] = tested on: CD8-MerTK in Ba/F3-CDM cells; experiment: In cell MER kinase assay, Ba/F3-CDM cell proliferation without IL-3 (Celltiter-Glo); type: cell-based, murine; details: 48 hours compound treatment, read-out: Cell growth inhibition (GI50)
How it was run: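 Ba/F3 cells, IL-3-dependent, transfected with CD8-MerTK and grown without IL-3 in DMEM/10% FBS. IL-3-supplemented Ba/F3 cells run in parallel as a cytotoxicity control.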

human c-MER catalytic domain, sequence (Q12866 587-858): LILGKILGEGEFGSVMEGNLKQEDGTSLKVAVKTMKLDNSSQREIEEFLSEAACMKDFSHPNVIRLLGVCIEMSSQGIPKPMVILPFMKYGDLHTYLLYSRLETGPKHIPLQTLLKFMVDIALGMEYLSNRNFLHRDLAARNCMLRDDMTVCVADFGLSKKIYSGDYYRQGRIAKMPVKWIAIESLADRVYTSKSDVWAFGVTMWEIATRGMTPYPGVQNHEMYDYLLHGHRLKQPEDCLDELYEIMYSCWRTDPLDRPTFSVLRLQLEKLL

Question: Which results are given for `Cn1cc(-c2cnc(N)c(C(=O)N[C@H]3CNC[C@@H]3OCc3ccc(-c4ccc(CN5CCN(CCO)CC5)cc4)cc3)c2)cn1` [Example 446, 2-amino-N-((3S,4S)-4-((4′-((4-(2-hydroxyethyl)piperazin-1-yl)-methyl)-[1,1′-biphenyl]-4-yl)methoxy)pyrrolidin-3-yl)-5-(1-methyl-1H-pyrazol-4-yl)-nicotinamide]?
Answer: IC50 [1]: < 10 nM; GI50 [2]: > 1000 nM

Question: Which IC50 [1] does the source give for `CN1C[C@H](NC(=O)c2cc(-c3cnn(C)c3)cnc2N)[C@@H](OCc2ccc(-c3ccc(CN4CCN(CCO)CC4)cc3)cc2)C1` [Example 447, 2-amino-N-((3S,4S)-4-((4′-((4-(2-hydroxyethyl)piperazin-1-yl)-methyl)-[1,1′-biphenyl]-4-yl)methoxy)-1-methylpyrrolidin-3-yl)-5-(1-methyl-1H-pyrazol-4-yl)nicotinamide] here?
Answer: The IC50 was under 10 nM.

Question: What about the GI50 [2] of the same molecule?
Answer: The GI50 was under 100 nM.

Question: `CN1CCN(Cc2ccc(-c3ccc(CO[C@H]4COC[C@@H]4NC(=O)c4cc(-c5cnn(C)c5)cnc4N)cc3)cc2)CC1` [Example 448, 2-amino-5-(1-methyl-1H-pyrazol-4-yl)-N-((3S,4R)-4-((4′-((4-methylpiperazin-1-yl)methyl)-[1,1′-biphenyl]-4-yl)methoxy)tetrahydrofuran-3-yl)-nicotinamide] was tested. Which IC50 [1] did it give?
Answer: The IC50 was under 10 nM.

Question: What about the GI50 [2] of the same molecule?
Answer: Its GI50 is under 100 nM.

Question: Which results are given for `CN1CCN(Cc2ccc(-c3ccc(CO[C@H]4COC[C@@H]4NC(=O)c4cc(-c5cnn(C)c5)cnc4N)cc3)cc2C(F)(F)F)CC1` [Example 449, 2-amino-5-(1-methyl-1H-pyrazol-4-yl)-N-((3S,4R)-4-((4′-((4-methylpiperazin-1-yl)methyl)-3′-(trifluoromethyl)-[1,1′-biphenyl]-4-yl)methoxy)-tetrahydrofuran-3-yl)nicotinamide]?
Answer: IC50 [1]: < 10 nM; GI50 [2]: < 100 nM

Question: Which results are given for `CN1CCN(C(C)(C)c2ccc(-c3ccc(CO[C@H]4COC[C@@H]4NC(=O)c4cc(-c5cnn(C)c5)cnc4N)cc3)cc2)CC1` [Example 450, 2-amino-5-(1-methyl-1H-pyrazol-4-yl)-N-((3S,4R)-4-((4′-(2-(4-methylpiperazin-1-yl)propan-2-yl)-[1,1′-biphenyl]-4-yl)methoxy)tetrahydrofuran-3-yl)nicotinamide]?
Answer: IC50 [1]: < 10 nM; GI50 [2]: < 100 nM

Question: Which IC50 [1] does the source give for `Cn1cc(-c2cnc(N)c(C(=O)N[C@H]3COC[C@@H]3OCc3ccc(-c4ccc(CN5CCN(CCO)CC5)cc4)cc3)c2)cn1` [Example 451, 2-amino-N-((3S,4R)-4-((4′-((4-(2-hydroxyethyl)piperazin-1-yl)methyl)-[1,1′-biphenyl]-4-yl)methoxy)tetrahydrofuran-3-yl)-5-(1-methyl-1H-pyrazol-4-yl)nicotinamide] here?
Answer: The IC50 was under 10 nM.

Question: What about the GI50 [2] of the same molecule?
Answer: Its GI50 is under 100 nM.

Question: Which results are given for `Cn1cc(-c2cnc(N)c(C(=O)N[C@H]3COC[C@@H]3OCc3ccc(-c4ccc(CN5CCN(CCO)CC5)c(C(F)(F)F)c4)cc3)c2)cn1` [Example 452, 2-amino-N-((3S,4R)-4-((4′-((4-(2-hydroxyethyl)piperazin-1-yl)-methyl)-3′-(trifluoromethyl)-[1,1′-biphenyl]-4-yl)methoxy)tetrahydrofuran-3-yl)-5-(1-methyl-1H-pyrazol-4-yl)nicotinamide]?
Answer: IC50 [1]: < 10 nM; GI50 [2]: < 100 nM

Question: What does the source list for `Cn1cc(-c2cnc(N)c(C(=O)N[C@H]3COC[C@@H]3OCc3ccc(-c4ccc(C(C)(C)N5CCN(CCO)CC5)cc4)cc3)c2)cn1` [Example 453, 2-amino-N-((3S,4R)-4-((4′-(2-(4-(2-hydroxyethyl)piperazin-1-yl)-propan-2-yl)-[1,1′-biphenyl]-4-yl)methoxy)tetrahydrofuran-3-yl)-5-(1-methyl-1H-pyrazol-4-yl)nicotinamide]?
Answer: IC50 [1]: < 10 nM; GI50 [2]: 100 to 500 nM
